# Target: T1, Androgen Receptor (AR) (Homo sapiens, UniProt P10275, T878A)
# T1 construct: cell based immuno-fluorescence assay using the LNCaP prostate epithelial cell line; endogenous in cells; host or cells: LNCaP clone FGC (ATCC CRL-1740)
# T1 sequence (P10275 1-920 T878A): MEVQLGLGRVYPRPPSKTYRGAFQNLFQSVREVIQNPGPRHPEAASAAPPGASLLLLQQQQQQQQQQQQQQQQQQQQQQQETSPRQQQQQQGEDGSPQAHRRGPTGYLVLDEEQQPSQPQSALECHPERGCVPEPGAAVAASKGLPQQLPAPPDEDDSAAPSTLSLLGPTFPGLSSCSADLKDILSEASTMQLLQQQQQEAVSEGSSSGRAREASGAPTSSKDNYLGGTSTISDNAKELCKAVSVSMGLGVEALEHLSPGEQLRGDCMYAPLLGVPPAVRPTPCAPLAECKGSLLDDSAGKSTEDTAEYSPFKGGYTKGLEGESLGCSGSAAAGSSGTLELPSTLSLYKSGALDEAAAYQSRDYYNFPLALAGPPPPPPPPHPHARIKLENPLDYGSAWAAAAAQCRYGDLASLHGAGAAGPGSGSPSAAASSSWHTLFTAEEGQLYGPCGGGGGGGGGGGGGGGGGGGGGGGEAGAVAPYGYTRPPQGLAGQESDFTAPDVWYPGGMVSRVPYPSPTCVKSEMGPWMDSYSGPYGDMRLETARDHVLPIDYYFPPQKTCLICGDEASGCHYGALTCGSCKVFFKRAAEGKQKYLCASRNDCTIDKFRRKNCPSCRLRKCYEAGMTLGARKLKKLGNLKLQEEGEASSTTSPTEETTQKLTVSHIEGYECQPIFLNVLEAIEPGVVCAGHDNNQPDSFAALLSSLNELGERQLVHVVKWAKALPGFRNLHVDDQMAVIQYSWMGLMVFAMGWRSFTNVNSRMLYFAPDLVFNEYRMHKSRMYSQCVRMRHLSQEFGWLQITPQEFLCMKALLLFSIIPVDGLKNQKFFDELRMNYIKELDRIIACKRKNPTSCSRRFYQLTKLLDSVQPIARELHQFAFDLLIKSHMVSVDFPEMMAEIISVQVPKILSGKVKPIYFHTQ
# Experiment: LNCaP Androgen Receptor Down-regulation Cell Assay (immunofluorescence end point)
# Type: cell-based
# Conditions: LNCaP prostate carcinoma cells, compound incubation 20-22 hours, 50% reduction of the AR signal; read-out: Androgen Receptor Down-regulation Assay (a) IC50/μM
# In short: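 AR loss reported as IC50 from curve fits of fluorescence dose-response data, with AR immunostained and read by laser-scanning cytometry. Compound exposure was 20-22 h at 37° C in LNCaP cells grown in 5% charcoal-stripped FBS and plated overnight beforehand.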
row,SMILES,DC50
1,"Fc1ccc(CN2CCCN(c3ccc4nnc(C(F)(F)F)n4n3)CC2)cc1 [Example 177, 6-[4-[(4-fluorophenyl)methyl]-1,4-diazepan-1-yl]-3-(trifluoromethyl)-[1,2,4]triazolo[4,3-b]pyridazine]",0.77 µM
2,"Cc1cccc(CN2CCCN(c3ccc4nnc(C(F)(F)F)n4n3)CC2)c1 [Example 178, 6-[4-[(3-methylphenyl)methyl]-1,4-diazepan-1-yl]-3-(trifluoromethyl)-[1,2,4]triazolo[4,3-b]pyridazine]",0.88 µM
3,"FC(F)(F)c1cccc(CN2CCCN(c3ccc4nnc(C(F)(F)F)n4n3)CC2)c1 [Example 179, 3-(trifluoromethyl)-6-[4-[[3-(trifluoromethyl)phenyl]methyl]-1,4-diazepan-1-yl]-[1,2,4]triazolo[4,3-b]pyridazine]",0.59 µM
4,"COc1ccc(CN2CCCN(c3ccc4nnc(C(F)(F)F)n4n3)CC2)cc1 [Example 181, 6-[4-[(4-methoxyphenyl)methyl]-1,4-diazepan-1-yl]-3-(trifluoromethyl)-[1,2,4]triazolo[4,3-b]pyridazine]",2.1 µM
5,"FC(F)(F)c1cccc(CN2CCN(c3ccc4nnc(C(F)(F)F)n4c3)CC2)c1 [Example 185, 3-(trifluoromethyl)-6-[4-[[3-(trifluoromethyl)phenyl]methyl]piperazin-1-yl]-[1,2,4]triazolo[4,3-a]pyridine]",0.68 µM
6,"FC(F)(F)c1ccc(CN2CCN(c3ccc4nnc(C(F)(F)F)n4c3)CC2)cc1 [Example 186, 3-(trifluoromethyl)-6-[4-[[4-(trifluoromethyl)phenyl]methyl]piperazin-1-yl]-[1,2,4]triazolo[4,3-a]pyridine]",2.8 µM
7,"N#Cc1ccc(CN2CCN(c3ccc4nnc(C(F)(F)F)n4c3)CC2)cc1 [Example 187, 4-[[4-[3-(trifluoromethyl)-[1,2,4]triazolo[4,3-a]pyridin-6-yl]piperazin-1-yl]methyl]benzonitrile]",4.7 µM
8,"N#Cc1cccc(CN2CCN(c3ccc4nnc(C(F)(F)F)n4c3)CC2)c1 [Example 188, 3-[[4-[3-(trifluoromethyl)-[1,2,4]triazolo[4,3-a]pyridin-6-yl]piperazin-1-yl]methyl]benzonitrile]",2.2 µM
9,"Fc1cccc(CN2CCN(c3ccc4nnc(C(F)(F)F)n4c3)CC2)c1 [Example 189, 6-[4-[(3-fluorophenyl)methyl]piperazin-1-yl]-3-(trifluoromethyl)-[1,2,4]triazolo[4,3-a]pyridine]",1.1 µM
10,"FC(F)(F)c1nnc2ccc(N3CCN(Cc4ccc(Cl)cc4)CC3)cn12 [Example 190, 6-[4-[(4-chlorophenyl)methyl]piperazin-1-yl]-3-(trifluoromethyl)-[1,2,4]triazolo[4,3-a]pyridine]",0.79 µM
11,"Fc1ccc(CN2CCN(c3ccc4nnc(C(F)(F)F)n4c3)CC2)cc1 [Example 191, 6-[4-[(4-fluorophenyl)methyl]piperazin-1-yl]-3-(trifluoromethyl)-[1,2,4]triazolo[4,3-a]pyridine]",2.1 µM
12,"COc1ccc(CN2CCN(c3ccc4nnc(C(F)(F)F)n4c3)CC2)cc1 [Example 192, 6-[4-[(4-methoxyphenyl)methyl]piperazin-1-yl]-3-(trifluoromethyl)-[1,2,4]triazolo[4,3-a]pyridine]",8.7 µM
13,"FC(F)(F)c1nnc2ccc(N3CC4CN(Cc5ccncc5)CC4C3)nn12 (stereo not shown) [Example 193, 6-[2-(pyridin-4-ylmethyl)-1,3,3a,4,6,6a-hexahydropyrrolo[3,4-c]pyrrol-5-yl]-3-(trifluoromethyl)-[1,2,4]triazolo[4,3-b]pyridazine]",2 µM

# More lines, now with the values ahead:
row,DC50,SMILES
1,2.4 µM,"COc1cccc(CN2CC3CN(c4ccc5nnc(C(F)(F)F)n5n4)CC3C2)c1 (stereo not shown) [Example 194, 6-[2-[(3-methoxyphenyl)methyl]-1,3,3a,4,6,6a-hexahydropyrrolo[3,4-c]pyrrol-5-yl]-3-(trifluoromethyl)-[1,2,4]triazolo[4,3-b]pyridazine]"
2,1.5 µM,"FC(F)(F)c1cccc(CN2CC3CN(c4ccc5nnc(C(F)(F)F)n5n4)CC3C2)c1 (stereo not shown) [Example 196, 3-(trifluoromethyl)-6-[2-[[3-(trifluoromethyl)phenyl]methyl]-1,3,3a,4,6,6a-hexahydropyrrolo[3,4-c]pyrrol-5-yl]-[1,2,4]triazolo[4,3-b]pyridazine]"
3,0.82 µM,"N#Cc1cccc(CN2CC3CN(c4ccc5nnc(C(F)(F)F)n5n4)CC3C2)c1 (stereo not shown) [Example 197, 3-[[5-[3-(trifluoromethyl)-[1,2,4]triazolo[4,3-b]pyridazin-6-yl]-1,3,3a,4,6,6a-hexahydropyrrolo[3,4-c]pyrrol-2-yl]methyl]benzonitrile]"
4,1.9 µM,"FC(F)(F)c1ccc(CN2CC3CN(c4ccc5nnc(C(F)(F)F)n5n4)CC3C2)cc1 (stereo not shown) [Example 199, 3-(trifluoromethyl)-6-[2-[[4-(trifluoromethyl)phenyl]methyl]-1,3,3a,4,6,6a-hexahydropyrrolo[3,4-c]pyrrol-5-yl]-[1,2,4]triazolo[4,3-b]pyridazine]"
5,1.7 µM,"FC(F)(F)c1ccc(CN2CC3CN(c4ccc5nnc(C(F)(F)F)n5n4)CC3C2)cn1 (stereo not shown) [Example 201, 3-(trifluoromethyl)-6-[2-[[6-(trifluoromethyl)pyridin-3-yl]methyl]-1,3,3a,4,6,6a-hexahydropyrrolo[3,4-c]pyrrol-5-yl]-[1,2,4]triazolo[4,3-b]pyridazine]"
6,1.7 µM,"Fc1ccc(CN2CC3CN(c4ccc5nnc(C(F)(F)F)n5n4)CC3C2)cc1 (stereo not shown) [Example 203, 6-[2-[(4-fluorophenyl)methyl]-1,3,3a,4,6,6a-hexahydropyrrolo[3,4-c]pyrrol-5-yl]-3-(trifluoromethyl)-[1,2,4]triazolo[4,3-b]pyridazine]"
7,1.5 µM,"FC(F)(F)c1nnc2ccc(N3CC4CN(Cc5ccc(Cl)cc5)CC4C3)nn12 (stereo not shown) [Example 204, 6-[2-[(4-chlorophenyl)methyl]-1,3,3a,4,6,6a-hexahydropyrrolo[3,4-c]pyrrol-5-yl]-3-(trifluoromethyl)-[1,2,4]triazolo[4,3-b]pyridazine]"
8,0.53 µM,"N#Cc1ccc(CN2CC3CN(c4ccc5nnc(C(F)(F)F)n5n4)CC3C2)cc1 (stereo not shown) [Example 205, 4-[[5-[3-(trifluoromethyl)-[1,2,4]triazolo[4,3-b]pyridazin-6-yl]-1,3,3a,4,6,6a-hexahydropyrrolo[3,4-c]pyrrol-2-yl]methyl]benzonitrile]"
9,2 µM,"FC(F)(F)c1nnc2ccc(N3CC4CN(Cc5cccnc5)CC4C3)nn12 (stereo not shown) [Example 206, 6-[2-(pyridin-3-ylmethyl)-1,3,3a,4,6,6a-hexahydropyrrolo[3,4-c]pyrrol-5-yl]-3-(trifluoromethyl)-[1,2,4]triazolo[4,3-b]pyridazine]"
10,7.6 µM,"COc1cccc(C(=O)N2CC3CN(c4ccc5nnc(C(F)(F)F)n5n4)CC3C2)c1 (stereo not shown) [Example 207, (3-methoxyphenyl)-[2-[3-(trifluoromethyl)-[1,2,4]triazolo[4,3-b]pyridazin-6-yl]-1,3,3a,4,6,6a-hexahydropyrrolo[3,4-c]pyrrol-5-yl]methanone]"
11,1.8 µM,"FC(F)(F)c1nnc2ccc(N3CC4CN(Cc5ccccc5)CC4C3)nn12 (stereo not shown) [Example 210, 6-(5-benzyl-1,3,3a,4,6,6a-hexahydropyrrolo[3,4-c]pyrrol-2-yl)-3-(trifluoromethyl)-[1,2,4]triazolo[3,4-f]pyridazine]"
12,8.2 µM,"CC(C)(C)OC(=O)N1CC2CN(c3ccc4nnc(C(F)(F)F)n4n3)CC2C1 (stereo not shown) [Example 211, tert-butyl 5-(3-(trifluoromethyl)-[1,2,4]triazolo[4,3-b]pyridazin-6-yl)hexahydropyrrolo[3,4-c]pyrrole-2(1H)-carboxylate]"
13,3.7 µM,"Nc1ccc(CN2CCN(c3ccc4nnc(C(F)(F)F)n4n3)CC2)cc1 [Example 212, 4-((4-(3-(trifluoromethyl)-[1,2,4]triazolo[4,3-b]pyridazin-6-yl)piperazin-1-yl)methyl)aniline]"
14,4.5 µM,"O=C(Nc1ccc(F)cc1)N1CC2CN(c3ccc4nnc(C(F)(F)F)n4n3)CC2C1 (stereo not shown) [Example 213, N-(4-fluorophenyl)-2-[3-(trifluoromethyl)-[1,2,4]triazolo[3,4-f]pyridazin-6-yl]-1,3,3a,4,6,6a-hexahydropyrrolo[3,4-c]pyrrole-5-carboxamide]"
15,7.4 µM,"CCS(=O)(=O)N1CC2CN(c3ccc4nnc(C(F)(F)F)n4n3)CC2C1 (stereo not shown) [Example 215, 6-(5-ethylsulfonyl-1,3,3a,4,6,6a-hexahydropyrrolo[3,4-c]pyrrol-2-yl)-3-(trifluoromethyl)-[1,2,4]triazolo[3,4-f]pyridazine]"
